Earlier results as cited in patent US20070184040A1, “Compositions for delivery of coenzyme Q10” (priority 2006, published 2007).

- solubility in most hydrophilic solvents, such as water: very poorly soluble
SMILES: COC1=C(OC)C(=O)C(C/C=C(\C)CC/C=C(\C)CC/C=C(\C)CC/C=C(\C)CC/C=C(\C)CC/C=C(\C)CC/C=C(\C)CC/C=C(\C)CC/C=C(\C)CCC=C(C)C)=C(C)C1=O [CoQ10, Coenzyme Q10]
